Measured values reported in US20230085307A1, “PYRIDAZINONE COMPOUND AND HERBICIDE” (NISSAN CHEMICAL CORPORATION, priority 2019, published 2023).

How the values were obtained:
Italian ryegrass = experiment: Test Example 4: herbicidal effect by soil treatment (Table 19, symbol K); type: in vivo, Italian ryegrass (Lolium multiflorum); conditions: amount of applied herbicide 320 g/ha
Summary of the method: (§1)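 Herbicidal effect was rated 3 weeks after treatment, using the scoring criteria of an earlier test. The compound, formulated as an emulsion and diluted in water to a set herbicide amount, had been sprayed uniformly on soil over freshly sown seeds. Growth took place in a greenhouse at 25° C. to 30° C.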

southern crabgrass = experiment: Test Example 4: herbicidal effect by soil treatment (Table 19, symbol F); type: in vivo, southern crabgrass (Digitaria ciliaris); conditions: amount of applied herbicide 320 g/ha
Summary of the method: as §1

lambsquarters = experiment: Test Example 4: herbicidal effect by soil treatment (Table 19, symbol O); type: in vivo, lambsquarters (Chenopodium album); conditions: amount of applied herbicide 320 g/ha
Summary of the method: as §1

soybean = experiment: Test Example 4: effect on crop by soil treatment (Table 19, symbol d); type: in vivo; conditions: amount of applied herbicide 320 g/ha
Description: (§2) [Test Example 4] Herbicidal Effect Test by Soil Treatment
(§3) Sterilized diluvial soil was placed in a plastic box having a length of 21 cm, a width of 13 cm, and a depth of 7 cm. The seeds of each of southern crabgrass, green foxtail, barnyard grass, wild oat, blackgrass, Italian ryegrass, windgrass, velvetleaf, redroot pigweed, lambsquarters, chickweed, false cleavers, persian speedwell, corn, soybean, rice, wheat, beet, and rapeseed were sowed in a spot-like manner and covered with the soil having a thickness of about 1.5 cm. Subsequently, the emulsion agent of the compound of the present invention prepared according to Formulation Example 2 was diluted with water so as to achieve a predetermined herbicide amount, and the diluted emulsion agent was uniformly applied to the surface of the soil with a small-sized spray. The plastic box was placed in a greenhouse at 25° C. to 30° C. for growth of the plants. Three weeks after the herbicide application, the effect of the herbicide on each plant was evaluated according to the criteria of Test Example 1.

directly sowed rice = experiment: Test Example 3: effect on crop by foliage application, Wagner pot (Table 18, symbol b); type: in vivo; conditions: amount of applied herbicide 320 g/ha
Method: [Test Example 3] Herbicidal Effect Test by Foliage Application After alluvial soil was placed into 1/10000 are of Wagner pot, water was poured and mixed to form a submerged condition having a water depth of 0.1 cm to 0.5 cm. Seeds of barnyard grass, Chinese sprangletop, rice flat sedge, and rice were sowed and the pot was placed in a greenhouse at 25° C. to 30° C. for growth of the plants. After 14-day growth of the plants, the emulsion agent of the compound of the present invention prepared according to Formulation Example 2 was diluted with water so as to achieve a predetermined herbicide amount, and the diluted emulsion agent was uniformly applied to a foliage part with a small-sized spray. Three weeks after the herbicide application, the effect of the herbicide on each plant was evaluated according to the criteria of Test Example 1.

Chinese sprangletop = experiment: Test Example 3: herbicidal effect by foliage application, Wagner pot (Table 18, symbol D); type: in vivo, chinese sprangletop (Leptochloa chinensis); conditions: amount of applied herbicide 320 g/ha
Summary of the method: (§4)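 Plants were sown in alluvial soil held under 0.1–0.5 cm standing water and grown 14 days in a greenhouse at 25–30 °C. An emulsifiable formulation, water-diluted to the set dose, was then sprayed onto the foliage, and effects were scored three weeks later using previously defined criteria.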

rapeseed = experiment: Test Example 4: effect on crop by soil treatment (Table 19, symbol g); type: in vivo; conditions: amount of applied herbicide 320 g/ha
Description: as §2, §3

beet = experiment: Test Example 4: effect on crop by soil treatment (Table 19, symbol f); type: in vivo; conditions: amount of applied herbicide 320 g/ha
Description: as §2, §3

barnyard grass [1] = experiment: Test Example 4: herbicidal effect by soil treatment (Table 19, symbol H); type: in vivo, barnyard grass (Echinochloa crus-galli); conditions: amount of applied herbicide 320 g/ha
Summary of the method: as §1

velvetleaf = experiment: Test Example 4: herbicidal effect by soil treatment (Table 19, symbol M); type: in vivo, velvetleaf (Abutilon theophrasti); conditions: amount of applied herbicide 320 g/ha
Summary of the method: as §1

green foxtail = experiment: Test Example 4: herbicidal effect by soil treatment (Table 19, symbol G); type: in vivo, green foxtail (Setaria viridis); conditions: amount of applied herbicide 320 g/ha
Summary of the method: as §1

wheat = experiment: Test Example 4: effect on crop by soil treatment (Table 19, symbol e); type: in vivo; conditions: amount of applied herbicide 320 g/ha
Description: as §2, §3

windgrass = experiment: Test Example 4: herbicidal effect by soil treatment (Table 19, symbol L); type: in vivo, windgrass (Apera spica-venti); conditions: amount of applied herbicide 320 g/ha
Summary of the method: as §1

corn = experiment: Test Example 4: effect on crop by soil treatment (Table 19, symbol c); type: in vivo; conditions: amount of applied herbicide 320 g/ha
Description: as §2, §3

blackgrass = experiment: Test Example 4: herbicidal effect by soil treatment (Table 19, symbol J); type: in vivo, blackgrass (Alopecurus myosuroides); conditions: amount of applied herbicide 320 g/ha
Summary of the method: as §1

redroot pigweed = experiment: Test Example 4: herbicidal effect by soil treatment (Table 19, symbol N); type: in vivo, redroot pigweed (Amaranthus retroflexus); conditions: amount of applied herbicide 320 g/ha
Summary of the method: as §1

barnyard grass [2] = experiment: Test Example 3: herbicidal effect by foliage application, Wagner pot (Table 18, symbol H); type: in vivo, barnyard grass (Echinochloa crus-galli); conditions: amount of applied herbicide 320 g/ha
Summary of the method: as §4

wild oat = experiment: Test Example 4: herbicidal effect by soil treatment (Table 19, symbol I); type: in vivo, wild oat (Avena fatua); conditions: amount of applied herbicide 320 g/ha
Summary of the method: as §1

rice flat sedge = experiment: Test Example 3: herbicidal effect by foliage application, Wagner pot (Table 18, symbol E); type: in vivo, rice flat sedge (Cyperus iria); conditions: amount of applied herbicide 320 g/ha
Summary of the method: as §4

COc1ccccc1-c1sc2ccc(SC(F)(F)F)cc2c1-c1c(O)c(C)nn(C)c1=O [Compound No. 2-378, 5-hydroxy-4-(2-(2-methoxyphenyl)-5-((trifluoromethyl)thio)benzo[b]thiophen-3-yl)-2,6-di methylpyridazin-3(2H)-one]
herbicidal effect, K: Italian ryegrass (Italian ryegrass): 0 (Herbicidal rate of 5% or less (almost no effect))
herbicidal effect, F: southern crabgrass (southern crabgrass): 0 (Herbicidal rate of 5% or less (almost no effect))
herbicidal effect, O: lambsquarters (lambsquarters): 2 (Herbicidal rate of 20% or more and less than 40%)
effect on crop, d: soybean (soybean): 0 (Herbicidal rate of 5% or less (almost no effect))
effect on crop b: directly sowed rice (directly sowed rice): 0 (Herbicidal rate of 5% or less (almost no effect))
herbicidal effect on D: Chinese sprangletop (Chinese sprangletop): 5 (Herbicidal rate of 90% or more (almost completely withered))
melting point: 183 to 186 °C
effect on crop, g: rapeseed (rapeseed): 0 (Herbicidal rate of 5% or less (almost no effect))
effect on crop, f: beet (beet): 0 (Herbicidal rate of 5% or less (almost no effect))
herbicidal effect, H: barnyard grass (barnyard grass [1]): 0 (Herbicidal rate of 5% or less (almost no effect))
herbicidal effect, M: velvetleaf (velvetleaf): 0 (Herbicidal rate of 5% or less (almost no effect))
herbicidal effect, G: green foxtail (green foxtail): 0 (Herbicidal rate of 5% or less (almost no effect))
effect on crop, e: wheat (wheat): 0 (Herbicidal rate of 5% or less (almost no effect))
herbicidal effect, L: windgrass (windgrass): 0 (Herbicidal rate of 5% or less (almost no effect))
effect on crop, c: corn (corn): 0 (Herbicidal rate of 5% or less (almost no effect))
herbicidal effect, J: blackgrass (blackgrass): 0 (Herbicidal rate of 5% or less (almost no effect))
herbicidal effect, N: redroot pigweed (redroot pigweed): 4 (Herbicidal rate of 70% or more and less than 90%)
herbicidal effect on H: barnyard grass (barnyard grass [2]): 5 (Herbicidal rate of 90% or more (almost completely withered))
herbicidal effect, I: wild oat (wild oat): 0 (Herbicidal rate of 5% or less (almost no effect))
herbicidal effect on E: rice flat sedge (rice flat sedge): 3 (Herbicidal rate of 40% or more and less than 70%)

COc1ccccc1-c1sc2ccc(SC(F)(F)F)cc2c1-c1c(OC)c(C)nn(C)c1=O [Compound No. 2-379, 5-methoxy-4-(2-(2-methoxyphenyl)-5-((trifluoromethyl)thio)benzo[b]thiophen-3-yl)-2,6-di methylpyridazin-3(2H)-one]
melting point: 152 to 155 °C
